The numbers were not newly measured in patent publication US20230414599A1, “NICOTINAMIDE, NICOTINAMIDE PRECURSORS AND NICOTINAMIDE METABOLITES AND COMPOSITIONS THEREOF FOR REDUCING THE TIME TO RESOLUTION OF SYMPTOMS IN PATIENTS WITH COVID-19 AND OTHER VIRAL INFECTIONS” (CONARIS RESEARCH INSTITUTE AG, priority 2020, published 2023), which cites them from elsewhere.

The test system of this data set is COVID-19. The following applies: patients with mild or moderate COVID-19; interim analysis; cited from earlier work.

Each structure is given as a SMILES string.

As for `CC(C)C(=O)OC[C@H]1O[C@@H](n2ccc(NO)nc2=O)[C@H](O)[C@@H]1O` [molnupiravir], the “Reduction of the risk of hospitalization or death compared to placebo” value is reported as “approximately 50%”.
